Test results: PubChem BioAssay (NCI)
“And” between values parts separate entries of the source, which are not always exact repeats. Identical values can stand only once.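 The compound was tested at five concentrations on cells cultured in 96-well plates, with a 48-hour exposure period. GI50 = concentration required for 50% inhibition of growth. At the TGI there is no net growth.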

Assays:
Experiment in all cases: growth of human tumour cells (NCI), 48 h
DU-145 prostate = tested on: DU-145 prostate
EKVX NSCLC = tested on: EKVX NSCLC
HOP-18 NSCLC = tested on: HOP-18 NSCLC
K-562 leukemia = tested on: K-562 leukemia
OVCAR-5 ovarian = tested on: OVCAR-5 ovarian
PC-3 prostate = tested on: PC-3 prostate
SF-295 CNS = tested on: SF-295 CNS
SK-MEL-2 melanoma = tested on: SK-MEL-2 melanoma
T-47D breast = tested on: T-47D breast
LXFL 529 NSCLC = tested on: LXFL 529 NSCLC

With `COc1cc2c(cc1OC)C(Cl)C(c1ccc(Br)cc1)=C2Cl` (centres undefined) the TGI (DU-145 prostate) was 23.8 µM, the TGI (EKVX NSCLC) was 17.2 µM and the TGI (HOP-18 NSCLC) was 56.4 µM. The TGI (K-562 leukemia) was 41.9 µM, the TGI (OVCAR-5 ovarian) was 31 µM and the TGI (PC-3 prostate) was 21.6 µM. For the same compound, the TGI (SF-295 CNS) was 30.5 µM, the TGI (SK-MEL-2 melanoma) was 22.5 µM and the TGI (T-47D breast) was 15.1 µM.

`O=C1c2ccccc2C(=O)N1CC#CCO` showed a TGI (EKVX NSCLC) of over 100 µM, a TGI (K-562 leukemia) of over 100 µM and a TGI (LXFL 529 NSCLC) of over 100 µM. The TGI (OVCAR-5 ovarian) was over 100 µM, the TGI (SF-295 CNS) was over 100 µM and the TGI (SK-MEL-2 melanoma) was over 100 µM.

`O=C(Nc1ccc(Br)cc1)C(=O)C(C(=O)c1ccc(Cl)c(Cl)c1)C1OC(=O)c2ccccc21` (centres undefined) was tested, and the TGI (EKVX NSCLC) was over 100 µM, the TGI (HOP-18 NSCLC) was 77 µM and the TGI (K-562 leukemia) was over 100 µM. It also gave a TGI (LXFL 529 NSCLC) of 23.2 µM, a TGI (OVCAR-5 ovarian) of 52.3 µM and a TGI (SF-295 CNS) of 65.3 µM.

With `CC(C)N1CC2CC(CN(C(=O)c3ccc(Cl)cc3)C2)C1` the TGI (EKVX NSCLC) was over 100 µM, the TGI (HOP-18 NSCLC) was over 100 µM and the TGI (K-562 leukemia) was over 100 µM. For the same compound, the TGI (LXFL 529 NSCLC) was over 100 µM, the TGI (OVCAR-5 ovarian) was over 100 µM and the TGI (SF-295 CNS) was over 100 µM. It also gave a TGI (SK-MEL-2 melanoma) of over 100 µM.

`Cc1ccc(/C=C2\CCCCC2=O)cc1` showed a TGI (EKVX NSCLC) of over 100 µM, a TGI (HOP-18 NSCLC) of over 100 µM and a TGI (K-562 leukemia) of 77.4 µM. It also gave a TGI (LXFL 529 NSCLC) of over 100 µM and a TGI (SF-295 CNS) of over 100 µM.

`Cc1cc(-c2ccccc2)nc(Nc2cc3ccccc3[nH]2)n1` showed a TGI (EKVX NSCLC) of over 100 µM, a TGI (K-562 leukemia) of over 100 µM and a TGI (LXFL 529 NSCLC) of over 100 µM. It also gave a TGI (OVCAR-5 ovarian) of over 100 µM, a TGI (SF-295 CNS) of over 100 µM and a TGI (SK-MEL-2 melanoma) of over 100 µM.

Compound `C=CCC1(CN(C)C)CC/C(=C\c2ccc3c(c2)OCO3)C1=O` (centres undefined) has a TGI (EKVX NSCLC) of 66.9 µM, a TGI (HOP-18 NSCLC) of over 100 µM and a TGI (K-562 leukemia) of over 100 µM. For the same compound, the TGI (LXFL 529 NSCLC) was over 100 µM, the TGI (OVCAR-5 ovarian) was over 100 µM and the TGI (SF-295 CNS) was over 100 µM. It also gave a TGI (SK-MEL-2 melanoma) of over 100 µM.

`NC(=O)NNC/C(Cl)=C(\Cl)C(=O)O` was tested, and the TGI (EKVX NSCLC) was over 100 µM, the TGI (HOP-18 NSCLC) was over 100 µM and the TGI (K-562 leukemia) was over 100 µM. The TGI (LXFL 529 NSCLC) was over 100 µM, the TGI (OVCAR-5 ovarian) was over 100 µM and the TGI (SF-295 CNS) was over 100 µM. It also gave a TGI (SK-MEL-2 melanoma) of over 100 µM.

Compound `CC1(c2ccc(F)cc2)C2C(=O)NC(=O)C1C(=O)NC2=O` (centres undefined) has a TGI (EKVX NSCLC) of over 100 µM, a TGI (K-562 leukemia) of over 100 µM and a TGI (LXFL 529 NSCLC) of over 100 µM. It also gave a TGI (OVCAR-5 ovarian) of over 100 µM, a TGI (SF-295 CNS) of over 100 µM and a TGI (SK-MEL-2 melanoma) of over 100 µM.

`CCCCCCCCCC1CC(=O)OC2=C1C(=O)CCC2` (centres undefined) gave a TGI (EKVX NSCLC) of over 100 µM, a TGI (HOP-18 NSCLC) of over 100 µM and a TGI (K-562 leukemia) of over 100 µM. It also gave a TGI (LXFL 529 NSCLC) of over 100 µM, a TGI (OVCAR-5 ovarian) of over 100 µM and a TGI (SF-295 CNS) of over 100 µM. For the same compound, the TGI (SK-MEL-2 melanoma) was over 100 µM.

`CC1C(c2ccccc2)N(C)C(c2ccccc2)C(C)C1(O)c1ccccc1` (centres undefined) showed a TGI (EKVX NSCLC) of over 100 µM, a TGI (K-562 leukemia) of over 100 µM and a TGI (LXFL 529 NSCLC) of over 100 µM. The TGI (OVCAR-5 ovarian) was over 100 µM, the TGI (SF-295 CNS) was over 100 µM and the TGI (SK-MEL-2 melanoma) was over 100 µM.

In the case of `Cc1cc(N(CCC#N)S(=O)(=O)c2ccccc2)ccc1C=Nc1ccc(C(=O)O)cc1`, the TGI (DU-145 prostate) is reported as over 100 µM, the TGI (EKVX NSCLC) is reported as 35.8 µM and the TGI (HOP-18 NSCLC) is reported as 16.6 µM. It also gave a TGI (K-562 leukemia) of 17.9 µM, a TGI (LXFL 529 NSCLC) of 3.52 µM and a TGI (OVCAR-5 ovarian) of 38.7 µM. For the same compound, the TGI (PC-3 prostate) was over 100 µM, the TGI (SF-295 CNS) was 44.8 µM and the TGI (SK-MEL-2 melanoma) was 22.3 µM. For the same compound, the TGI (T-47D breast) was over 100 µM.

In the case of `COc1cc(/C=C2\[C@@H]3NC(Cc4c(OC)c(C)c(OC)c(OC)c43)C(=O)N2Cc2ccccc2)c(OC)c(C)c1OC`, the TGI (EKVX NSCLC) is reported as 90.5 µM, the TGI (HOP-18 NSCLC) is reported as over 100 µM and the TGI (K-562 leukemia) is reported as over 100 µM. It also gave a TGI (LXFL 529 NSCLC) of over 100 µM, a TGI (OVCAR-5 ovarian) of over 100 µM and a TGI (SF-295 CNS) of over 100 µM. It also gave a TGI (SK-MEL-2 melanoma) of 36.3 µM.

Compound `CCCCCCCCCCCCCCNCC(OC)OC` has a TGI (EKVX NSCLC) of 34.2 µM, a TGI (HOP-18 NSCLC) of 26.4 µM and a TGI (LXFL 529 NSCLC) of 30 µM. It also gave a TGI (OVCAR-5 ovarian) of 27.8 µM, a TGI (SF-295 CNS) of 34.1 µM and a TGI (SK-MEL-2 melanoma) of 30.9 µM.

`CCO/C=C\C12CCCC1NC(c1ccccc1)(c1ccccc1)O2` (centres undefined) gave a TGI (EKVX NSCLC) of over 100 µM, a TGI (K-562 leukemia) of 56.7 µM and a TGI (LXFL 529 NSCLC) of 74.5 µM. The TGI (OVCAR-5 ovarian) was 37 µM, the TGI (SF-295 CNS) was over 100 µM and the TGI (SK-MEL-2 melanoma) was 45.7 µM.

For `CC1(C)CC(=O)C(CC2C(=O)CCCC2=O)C(=O)C1`, the TGI (EKVX NSCLC) was over 100 µM, the TGI (HOP-18 NSCLC) was over 100 µM and the TGI (K-562 leukemia) was over 100 µM. For the same compound, the TGI (LXFL 529 NSCLC) was over 100 µM, the TGI (OVCAR-5 ovarian) was over 100 µM and the TGI (SF-295 CNS) was over 100 µM. The TGI (SK-MEL-2 melanoma) was over 100 µM.

In the case of `COc1cc(C2c3cc4c(cc3[C@@H](NC3CCN(Cc5ccccc5)CC3)C3COC(=O)[C@H]23)OCO4)cc(OC)c1O` (some centres undefined), the GI50 (EKVX NSCLC) is reported as 0.369 µM and 0.783 µM, the TGI (EKVX NSCLC) is reported as 2.43 µM and 3.96 µM and the GI50 (K-562 leukemia) is reported as 0.266 µM and 0.122 µM. For the same compound, the TGI (K-562 leukemia) was 12.8 µM and 2.84 µM, the GI50 (LXFL 529 NSCLC) was 1.1 µM and 0.438 µM and the TGI (LXFL 529 NSCLC) was 4.4 µM and 2.72 µM. For the same compound, the TGI (OVCAR-5 ovarian) was 1.51 µM, the TGI (SF-295 CNS) was 0.498 µM and 0.752 µM and the GI50 (SK-MEL-2 melanoma) was 1.05 µM and 0.239 µM. The TGI (SK-MEL-2 melanoma) was 2.77 µM and 0.496 µM.

For `CCC(=O)OCOc1ccc(/C=C2\CCC(CN(C)C)C2=O)cc1` (centres undefined), the TGI (DU-145 prostate) was 30.6 µM, the TGI (EKVX NSCLC) was 37.9 µM and the TGI (HOP-18 NSCLC) was 28.8 µM. It also gave a TGI (K-562 leukemia) of 4.66 µM, a TGI (LXFL 529 NSCLC) of 9.27 µM and a TGI (OVCAR-5 ovarian) of 31.6 µM. The TGI (PC-3 prostate) was 27.6 µM, the TGI (SF-295 CNS) was 20.5 µM and the TGI (SK-MEL-2 melanoma) was 27.9 µM. For the same compound, the TGI (T-47D breast) was 9 µM.

Compound `COc1cc2[nH]c3c(c2cc1OC)CCN[C@@]31CC[C@@]2(CC3c4c(cc(OC)c(O)c42)CCN3C)C[C@@H]1OC` (some centres undefined) has a TGI (DU-145 prostate) of over 100 µM, a TGI (EKVX NSCLC) of over 46.4 µM and a TGI (HOP-18 NSCLC) of over 81.7 µM. It also gave a TGI (K-562 leukemia) of 56.5 µM, a TGI (LXFL 529 NSCLC) of over 100 µM and a TGI (OVCAR-5 ovarian) of over 100 µM. It also gave a TGI (PC-3 prostate) of over 100 µM, a TGI (SF-295 CNS) of 47.3 µM and a TGI (SK-MEL-2 melanoma) of 40.6 µM. The TGI (T-47D breast) was 51.8 µM.

In the case of `COc1ccc(N=NC2=C(O)CCC2=O)cc1`, the TGI (EKVX NSCLC) is reported as over 100 µM, the TGI (HOP-18 NSCLC) is reported as over 100 µM and the TGI (K-562 leukemia) is reported as over 100 µM. It also gave a TGI (OVCAR-5 ovarian) of over 100 µM, a TGI (SF-295 CNS) of over 100 µM and a TGI (SK-MEL-2 melanoma) of over 100 µM.

Compound `COc1cc2ncnc(Oc3ccc(NC(=O)Nc4ccc(CN5CCOCC5)c(C(F)(F)F)c4)c4ccccc34)c2cc1OC` has a GI50 (DU-145 prostate) of 1.59 µM, a TGI (DU-145 prostate) of 12.4 µM and a GI50 (EKVX NSCLC) of 0.463 µM. It also gave a TGI (EKVX NSCLC) of 5.91 µM, a TGI (K-562 leukemia) of 1.5 µM and a GI50 (OVCAR-5 ovarian) of 1.15 µM. For the same compound, the TGI (OVCAR-5 ovarian) was 6.95 µM, the GI50 (PC-3 prostate) was 1.75 µM and the TGI (PC-3 prostate) was 9.36 µM. For the same compound, the GI50 (SF-295 CNS) was 1.36 µM, the TGI (SF-295 CNS) was 5.54 µM and the GI50 (SK-MEL-2 melanoma) was 1.61 µM. For the same compound, the TGI (SK-MEL-2 melanoma) was 8.3 µM, the GI50 (T-47D breast) was 0.477 µM and the TGI (T-47D breast) was 5.17 µM.
